#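 Following 48 hours of exposure in 96-well plates, responses at five concentrations were used to interpolate endpoints linearly. GI50: concentration for 50% inhibition of growth. The concentration for full growth arrest is given as TGI.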
# How the values were obtained:
# Assay in all cases: growth of human tumour cells (NCI), 48 h
# SW-620 colon = system: SW-620 colon
# SK-MEL-28 melanoma = system: SK-MEL-28 melanoma
# MCF7 breast = system: MCF7 breast
# EKVX NSCLC = system: EKVX NSCLC
# HL-60(TB) leukemia = system: HL-60(TB) leukemia
# NCI-H226 lung = system: NCI-H226 lung
# RPMI-8226 leukemia = system: RPMI-8226 leukemia
# BT-549 breast = system: BT-549 breast
# A549 NSCLC = system: A549 NSCLC
# OVCAR-5 ovarian = system: OVCAR-5 ovarian
# HCC-2998 colon = system: HCC-2998 colon
# NCI-H23 lung = system: NCI-H23 lung
# HT29 colon = system: HT29 colon
# SF-295 CNS = system: SF-295 CNS
# SK-OV-3 ovarian = system: SK-OV-3 ovarian
# TK-10 renal = system: TK-10 renal
# MDA-MB-435 = system: MDA-MB-435
# K-562 leukemia = system: K-562 leukemia
# NCI-H460 lung = system: NCI-H460 lung
# COLO 205 colon = system: COLO 205 colon
# IGROV1 ovarian = system: IGROV1 ovarian
# SF-268 CNS = system: SF-268 CNS
# HCT-15 colon = system: HCT-15 colon
# NCI/ADR-RES ovarian = system: NCI/ADR-RES ovarian
# OVCAR-4 ovarian = system: OVCAR-4 ovarian
# HS 578T breast = system: HS 578T breast
# OVCAR-8 ovarian = system: OVCAR-8 ovarian
# M14 melanoma = system: M14 melanoma
# UO-31 renal = system: UO-31 renal
# UACC-257 melanoma = system: UACC-257 melanoma
# SNB-19 CNS = system: SNB-19 CNS
# KM12 colon = system: KM12 colon
# HOP-92 NSCLC = system: HOP-92 NSCLC
# T-47D breast = system: T-47D breast
# MOLT-4 leukemia = system: MOLT-4 leukemia
# UACC-62 melanoma = system: UACC-62 melanoma
# SK-MEL-2 melanoma = system: SK-MEL-2 melanoma
# SF-539 CNS = system: SF-539 CNS
# NCI-H522 lung = system: NCI-H522 lung
# DU-145 prostate = system: DU-145 prostate
# CCRF-CEM leukemia = system: CCRF-CEM leukemia
# U251 CNS = system: U251 CNS
# CAKI-1 renal = system: CAKI-1 renal
# OVCAR-3 ovarian = system: OVCAR-3 ovarian
# MALME-3M melanoma = system: MALME-3M melanoma
# HCT-116 colon = system: HCT-116 colon
# HOP-62 NSCLC = system: HOP-62 NSCLC
# 786-0 renal = system: 786-0 renal
# SK-MEL-5 melanoma = system: SK-MEL-5 melanoma
# LOX IMVI melanoma = system: LOX IMVI melanoma
# SN12C renal = system: SN12C renal
# ACHN renal = system: ACHN renal
# A498 renal = system: A498 renal
# MDA-MB-231 breast = system: MDA-MB-231 breast
# SNB-75 CNS = system: SNB-75 CNS
# SR leukemia = system: SR leukemia
# RXF 393 renal = system: RXF 393 renal
# PC-3 prostate = system: PC-3 prostate
smiles,measurement,setting,value
Nc1ccn([C@@H]2S[C@H](CO)[C@@H](O)[C@@H]2F)c(=O)n1,GI50,SW-620 colon,0.252 µM
same,TGI,SW-620 colon,> 100 µM
same,GI50,SK-MEL-28 melanoma,> 100 µM
same,TGI,SK-MEL-28 melanoma,> 100 µM
same,GI50,MCF7 breast,0.0545 µM
same,TGI,MCF7 breast,> 100 µM
same,GI50,EKVX NSCLC,0.648 µM
same,TGI,EKVX NSCLC,> 100 µM
same,GI50,HL-60(TB) leukemia,0.0792 µM
same,GI50,NCI-H226 lung,0.485 µM
same,TGI,NCI-H226 lung,> 48.4 µM
same,GI50,RPMI-8226 leukemia,2.65 µM
same,TGI,RPMI-8226 leukemia,> 100 µM
same,GI50,BT-549 breast,1.74 µM
same,TGI,BT-549 breast,> 100 µM
same,GI50,A549 NSCLC,0.161 µM
same,TGI,A549 NSCLC,> 100 µM
same,GI50,OVCAR-5 ovarian,0.509 µM
same,TGI,OVCAR-5 ovarian,> 100 µM
same,GI50,HCC-2998 colon,3.03 µM
same,TGI,HCC-2998 colon,> 100 µM
same,GI50,NCI-H23 lung,0.0586 µM
same,TGI,NCI-H23 lung,> 49 µM
same,GI50,HT29 colon,0.178 µM
same,TGI,HT29 colon,> 100 µM
same,GI50,SF-295 CNS,0.452 µM
same,TGI,SF-295 CNS,> 24.7 µM
same,GI50,SK-OV-3 ovarian,0.352 µM
same,TGI,SK-OV-3 ovarian,> 100 µM
same,GI50,TK-10 renal,> 100 µM
same,TGI,TK-10 renal,> 100 µM
same,GI50,MDA-MB-435,0.18 µM
same,TGI,MDA-MB-435,> 100 µM
same,GI50,K-562 leukemia,0.23 µM
same,TGI,K-562 leukemia,> 100 µM
same,GI50,NCI-H460 lung,0.138 µM
same,TGI,NCI-H460 lung,> 100 µM
same,GI50,COLO 205 colon,0.407 µM
same,TGI,COLO 205 colon,> 100 µM
same,GI50,IGROV1 ovarian,0.74 µM
same,TGI,IGROV1 ovarian,> 100 µM
same,GI50,SF-268 CNS,0.26 µM
same,TGI,SF-268 CNS,> 100 µM
same,GI50,HCT-15 colon,0.413 µM
same,TGI,HCT-15 colon,> 100 µM
same,GI50,NCI/ADR-RES ovarian,0.0325 µM
same,TGI,NCI/ADR-RES ovarian,> 100 µM
same,GI50,OVCAR-4 ovarian,> 100 µM
same,TGI,OVCAR-4 ovarian,> 100 µM
same,GI50,HS 578T breast,> 100 µM
same,TGI,HS 578T breast,> 100 µM
same,GI50,OVCAR-8 ovarian,0.026 µM
same,TGI,OVCAR-8 ovarian,> 100 µM
same,GI50,M14 melanoma,0.0616 µM
same,TGI,M14 melanoma,0.842 µM
same,GI50,UO-31 renal,0.0356 µM
same,GI50,UACC-257 melanoma,1.34 µM
same,TGI,UACC-257 melanoma,> 100 µM
same,GI50,SNB-19 CNS,0.0581 µM
same,TGI,SNB-19 CNS,> 100 µM
same,GI50,KM12 colon,8.65 µM
same,TGI,KM12 colon,> 100 µM
same,GI50,HOP-92 NSCLC,0.278 µM
same,TGI,HOP-92 NSCLC,> 100 µM
same,GI50,T-47D breast,1.35 µM
same,TGI,T-47D breast,> 100 µM
same,GI50,MOLT-4 leukemia,0.0304 µM
same,TGI,MOLT-4 leukemia,> 100 µM
same,GI50,UACC-62 melanoma,0.372 µM
same,TGI,UACC-62 melanoma,> 38.2 µM
same,GI50,SK-MEL-2 melanoma,> 100 µM
same,TGI,SK-MEL-2 melanoma,> 100 µM
same,GI50,SF-539 CNS,0.317 µM
same,GI50,NCI-H522 lung,8.83 µM
same,TGI,NCI-H522 lung,> 100 µM
same,GI50,DU-145 prostate,0.0424 µM
same,TGI,DU-145 prostate,> 100 µM
same,GI50,CCRF-CEM leukemia,< 0.01 µM
same,TGI,CCRF-CEM leukemia,> 100 µM
same,GI50,U251 CNS,0.367 µM
same,TGI,U251 CNS,> 100 µM
same,GI50,CAKI-1 renal,0.0412 µM
same,TGI,CAKI-1 renal,> 100 µM
same,GI50,OVCAR-3 ovarian,> 51.1 µM
same,TGI,OVCAR-3 ovarian,> 100 µM
same,GI50,MALME-3M melanoma,1.52 µM
same,TGI,MALME-3M melanoma,> 100 µM
same,GI50,HCT-116 colon,0.0393 µM
same,TGI,HCT-116 colon,> 100 µM
same,GI50,HOP-62 NSCLC,0.0526 µM
same,TGI,HOP-62 NSCLC,> 74.3 µM
same,GI50,786-0 renal,0.109 µM
same,GI50,SK-MEL-5 melanoma,0.178 µM
same,TGI,SK-MEL-5 melanoma,> 100 µM
same,GI50,LOX IMVI melanoma,0.224 µM
same,TGI,LOX IMVI melanoma,> 100 µM
same,GI50,SN12C renal,0.0405 µM
same,TGI,SN12C renal,> 100 µM
same,GI50,ACHN renal,0.0271 µM
same,GI50,A498 renal,0.0709 µM
same,GI50,MDA-MB-231 breast,> 100 µM
same,TGI,MDA-MB-231 breast,> 100 µM
same,GI50,SNB-75 CNS,2.73 µM
same,TGI,SNB-75 CNS,> 100 µM
same,GI50,SR leukemia,0.0575 µM
same,TGI,SR leukemia,> 100 µM
same,GI50,RXF 393 renal,0.289 µM
same,TGI,RXF 393 renal,> 22.4 µM
CN1CCOCCOCCOc2ccccc2NC(=O)c2nc(cnc2N)-c2ccc(cc2)S1(=O)=O,GI50,MCF7 breast,0.0397 µM
same,TGI,MCF7 breast,> 100 µM
same,GI50,EKVX NSCLC,60.2 µM
same,TGI,EKVX NSCLC,> 100 µM
same,GI50,NCI-H226 lung,59.9 µM
same,TGI,NCI-H226 lung,> 100 µM
same,GI50,BT-549 breast,7.77 µM
same,TGI,BT-549 breast,> 100 µM
same,GI50,OVCAR-5 ovarian,> 100 µM
same,TGI,OVCAR-5 ovarian,> 100 µM
same,GI50,HCC-2998 colon,> 100 µM
same,TGI,HCC-2998 colon,> 100 µM
same,GI50,SF-295 CNS,4.52 µM
same,TGI,SF-295 CNS,> 100 µM
same,GI50,SK-OV-3 ovarian,7.12 µM
same,TGI,SK-OV-3 ovarian,> 100 µM
same,GI50,TK-10 renal,11.3 µM
same,TGI,TK-10 renal,49.4 µM
same,GI50,IGROV1 ovarian,0.0719 µM
same,TGI,IGROV1 ovarian,> 100 µM
same,GI50,SF-268 CNS,11.1 µM
same,TGI,SF-268 CNS,> 100 µM
same,GI50,HS 578T breast,3.56 µM
same,TGI,HS 578T breast,> 100 µM
same,GI50,OVCAR-8 ovarian,7.1 µM
same,TGI,OVCAR-8 ovarian,> 100 µM
same,GI50,PC-3 prostate,> 100 µM
same,TGI,PC-3 prostate,> 100 µM
same,GI50,SNB-19 CNS,16.6 µM
same,TGI,SNB-19 CNS,> 100 µM
same,GI50,T-47D breast,> 100 µM
same,TGI,T-47D breast,> 100 µM
same,GI50,SF-539 CNS,0.0371 µM
same,TGI,SF-539 CNS,> 100 µM
same,GI50,NCI-H522 lung,5.55 µM
same,TGI,NCI-H522 lung,> 100 µM
same,GI50,U251 CNS,5.16 µM
same,TGI,U251 CNS,> 100 µM
same,GI50,MALME-3M melanoma,> 100 µM
same,TGI,MALME-3M melanoma,> 100 µM
same,GI50,HOP-62 NSCLC,14.7 µM
same,TGI,HOP-62 NSCLC,46.2 µM
same,GI50,786-0 renal,0.0398 µM
same,TGI,786-0 renal,23.3 µM
same,GI50,SN12C renal,> 100 µM
same,TGI,SN12C renal,> 100 µM
same,GI50,ACHN renal,0.0504 µM
same,TGI,ACHN renal,> 100 µM
same,GI50,A498 renal,0.0241 µM
same,TGI,A498 renal,3.93 µM
same,GI50,MDA-MB-231 breast,32.4 µM
same,TGI,MDA-MB-231 breast,> 100 µM
same,GI50,SNB-75 CNS,2.85 µM
same,TGI,SNB-75 CNS,17.7 µM
same,GI50,RXF 393 renal,1.59 µM
same,TGI,RXF 393 renal,21.9 µM
OC(c1cc(-c2ccc(Cl)cc2)nc2c(Cl)cccc12)C1CCCCN1 (stereo not drawn),GI50,SK-MEL-28 melanoma,1.76 µM
same,TGI,SK-MEL-28 melanoma,3.23 µM
same,GI50,OVCAR-5 ovarian,1.66 µM
same,TGI,OVCAR-5 ovarian,3.26 µM
same,GI50,SF-295 CNS,1.68 µM
same,TGI,SF-295 CNS,3.28 µM
same,GI50,SK-OV-3 ovarian,1.76 µM
same,TGI,SK-OV-3 ovarian,3.21 µM
same,GI50,NCI-H460 lung,1.64 µM
same,TGI,NCI-H460 lung,3.15 µM
same,GI50,COLO 205 colon,1.7 µM
same,TGI,COLO 205 colon,3.17 µM
same,GI50,SF-268 CNS,1.78 µM
same,TGI,SF-268 CNS,3.4 µM
same,GI50,OVCAR-8 ovarian,2.11 µM
same,TGI,OVCAR-8 ovarian,4.63 µM
same,GI50,PC-3 prostate,1.46 µM
same,TGI,PC-3 prostate,2.91 µM
same,GI50,KM12 colon,1.85 µM
same,TGI,KM12 colon,3.36 µM
same,GI50,HOP-92 NSCLC,1.02 µM
same,TGI,HOP-92 NSCLC,2.36 µM
same,GI50,UACC-62 melanoma,1.69 µM
same,TGI,UACC-62 melanoma,3.17 µM
same,GI50,SF-539 CNS,1.7 µM
same,TGI,SF-539 CNS,3.15 µM
same,GI50,DU-145 prostate,1.71 µM
same,TGI,DU-145 prostate,3.1 µM
same,GI50,CAKI-1 renal,1.16 µM
same,TGI,CAKI-1 renal,2.52 µM
same,GI50,OVCAR-3 ovarian,1.81 µM
same,TGI,OVCAR-3 ovarian,3.35 µM
same,GI50,SN12C renal,1.6 µM
same,TGI,SN12C renal,3.27 µM
same,GI50,ACHN renal,1.53 µM
same,TGI,ACHN renal,2.88 µM
same,GI50,MDA-MB-231 breast,1.49 µM
same,TGI,MDA-MB-231 breast,3.02 µM
same,GI50,SNB-75 CNS,1.28 µM
same,TGI,SNB-75 CNS,2.68 µM
CC(C)(Oc1ccc(/C=C/C(=O)c2ccccc2)cc1)C(=O)Nc1c(Cl)cccc1Cl,TGI,HL-60(TB) leukemia,23.6 µM
same,TGI,K-562 leukemia,> 100 µM
same,TGI,NCI-H522 lung,9.86 µM
same,TGI,CCRF-CEM leukemia,> 31.6 µM

# From PubChem BioAssay (NCI)
